Here are results for 13 compounds from PubChem BioAssay AID270 (DTP/NCI, 2004).

The experiment has as its system BDF1 mice, s.c. Lewis lung carcinoma, T/C %. Briefly: NCI In Vivo Anticancer Drug Screen. Data for tumor model Lewis Lung Carcinoma (subcutaneous) in B6D2F1 (BDF1) mice. Summed up: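 Transplanted tumors grown in mice; compound vs vehicle dosing; endpoint survival or tumor size; ratio T/C.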
The mark [1] stands for this setting: endpoint: median survival time, dose: 5.0 mg/kg/injection, schedule: Q01DX009 (ip), vehicle: saline, higher = longer survival.
[2] abbreviates: endpoint: median survival time, dose: 10.0 mg/kg/injection, schedule: Q01DX009 (ip), vehicle: saline, higher = longer survival.
Setting [3] is: endpoint: median survival time, dose: 20.0 mg/kg/injection, schedule: Q01DX009 (ip), vehicle: saline, higher = longer survival.
Where [4] appears, read: endpoint: median survival time, dose: 12.5 mg/kg/injection, schedule: Q01DX009 (ip), vehicle: Klucel (hydroxypropylcellulose) (HPC), higher = longer survival.
[5] abbreviates: endpoint: median survival time, dose: 25.0 mg/kg/injection, schedule: Q01DX009 (ip), vehicle: Klucel (hydroxypropylcellulose) (HPC), higher = longer survival.

Where “and” joins values, the source holds several entries; their conditions need not be identical. Equal entries are not always repeated. Results filed as inconclusive are left out.

Regarding `CCOP(=O)(N1CC1(C)C)N1CC1(C)C` (stereo not given), the T/C reads like this: under setting [1], 94 % of control; under setting [2], 101 % of control; under setting [3], 94 % of control; (endpoint: median survival time, dose: 30.0 mg/kg/injection, schedule: Q01DX009 (ip), vehicle: saline, higher = longer survival) 101 % of control; (endpoint: median survival time, dose: 50.0 mg/kg/injection, schedule: Q01DX009 (ip), vehicle: saline, higher = longer survival) 90 % of control; (endpoint: median survival time, dose: 80.0 mg/kg/injection, schedule: Q01DX009 (ip), vehicle: saline, higher = longer survival) 99 % of control.

Take `CC1=C/C(O)CC(=O)Cc2nc(co2)C(=O)N2CCC=C2C(=O)OC(C(C)C)C(C)/C=C\C(=O)NC/C=C\1` (stereo not given): the T/C is 103 % of control (endpoint: median survival time, dose: 0.5 micrograms/kg/injection, schedule: Q01DX009 (ip), vehicle: saline, higher = longer survival); 94 % of control (endpoint: median survival time, dose: 1.0 micrograms/kg/injection, schedule: Q01DX009 (ip), vehicle: saline, higher = longer survival); 98 % of control (endpoint: median survival time, dose: 2.0 micrograms/kg/injection, schedule: Q01DX009 (ip), vehicle: saline, higher = longer survival); 99 % of control (endpoint: median survival time, dose: 4.0 micrograms/kg/injection, schedule: Q01DX009 (ip), vehicle: saline, higher = longer survival).

Turning to `Cc1ccc(N2CCN(CCCN3CCN(c4ccccc4Cl)CC3)CC2)cc1`, the T/C runs as follows: (endpoint: mean tumor weight, dose: 22.5 mg/kg/injection, schedule: Q01DX011 (ip), vehicle: carboxymethylcellulose (CMC), higher = larger tumour) 108 % of control; (endpoint: mean tumor weight, dose: 45.0 mg/kg/injection, schedule: Q01DX011 (ip), vehicle: carboxymethylcellulose (CMC), higher = larger tumour) 45 % of control; (endpoint: mean tumor weight, dose: 90.0 mg/kg/injection, schedule: Q01DX011 (ip), vehicle: carboxymethylcellulose (CMC), higher = larger tumour) 38 % of control.

Regarding `CCOC(=O)C1C(=O)C(CN(CCCl)CCCl)C(=O)C(C(=O)OCC)C1c1ccc(O)cc1` (stereo not given), the T/C reads like this: (endpoint: median survival time, dose: 3.12 mg/kg/injection, schedule: Q01DX009 (ip), vehicle: Klucel (hydroxypropylcellulose) (HPC), higher = longer survival) 94 % of control; (endpoint: median survival time, dose: 6.25 mg/kg/injection, schedule: Q01DX009 (ip), vehicle: Klucel (hydroxypropylcellulose) (HPC), higher = longer survival) 98 % of control; under setting [4], 100 % of control; under setting [5], 94 % of control.

Regarding `CCOC(=O)[C@H]1CCC[C@@H](NC(=O)N(CCCl)N=O)C1`, the T/C is, setting by setting: (endpoint: median tumor weight (est.), dose: 20.0 mg/kg/injection, schedule: Q01DX001 (ip), vehicle: gum acacia, higher = larger tumour) 55 % of control; (endpoint: median tumor weight (est.), dose: 30.0 mg/kg/injection, schedule: Q01DX001 (ip), vehicle: gum acacia, higher = larger tumour) 34 % of control.

Regarding `CCOC(=O)NP(=O)(N1CC1)N1CC1`, the T/C by setting is: (endpoint: mean tumor weight, dose: 2.5 mg/kg/injection, schedule: Q01DX011 (ip), vehicle: saline, higher = larger tumour) 61 % of control and 75 % of control; (endpoint: mean tumor weight, dose: 5.0 mg/kg/injection, schedule: Q01DX011 (ip), vehicle: saline, higher = larger tumour) 35 % of control and 56 % of control.

For `COc1cc2cc(c1Cl)N(C)C(=O)C[C@H](OC(=O)[C@H](C)N(C)C(C)=O)[C@]1(C)O[C@H]1[C@H](C)[C@@H]1C[C@@](O)(NC(=O)O1)[C@H](OC)C=C/C=C(\C)C2`, the T/C (endpoint: median survival time, dose: 0.04 mg/kg/injection, schedule: Q04DX003 (ip), vehicle: saline, higher = longer survival) was 112 % of control; the T/C (endpoint: median survival time, dose: 0.08 mg/kg/injection, schedule: Q04DX003 (ip), vehicle: saline, higher = longer survival) is 102 % of control; the T/C (endpoint: median survival time, dose: 0.15 mg/kg/injection, schedule: Q04DX003 (ip), vehicle: saline, higher = longer survival) was 110 % of control; the T/C (endpoint: median survival time, dose: 0.6 mg/kg/injection, schedule: Q04DX003 (ip), vehicle: saline, higher = longer survival) is 96 % of control.

`COc1cc(OC)c(OC)cc1/C=C/c1cc[n+](C)c2ccccc12`: the T/C runs as follows: (endpoint: median survival time, dose: 6.25 mg/kg/injection, schedule: Q01DX009 (ip), vehicle: saline, higher = longer survival) 97 % of control; (endpoint: median survival time, dose: 12.5 mg/kg/injection, schedule: Q01DX009 (ip), vehicle: saline, higher = longer survival) 97 % of control; (endpoint: median survival time, dose: 25.0 mg/kg/injection, schedule: Q01DX009 (ip), vehicle: saline, higher = longer survival) 111 % of control.

Consider `NC(=S)c1cn(C2OC(CO)C(O)C2O)c2ncnc(N)c12` (stereo not given), for which the T/C is 111 % of control (endpoint: median survival time, dose: 0.31 mg/kg/injection, schedule: Q01DX009 (ip), vehicle: saline with Tween-80, higher = longer survival); 88 % of control (endpoint: median survival time, dose: 0.62 mg/kg/injection, schedule: Q01DX009 (ip), vehicle: saline with Tween-80, higher = longer survival); 94 % of control and 101 % of control (endpoint: median survival time, dose: 2.5 mg/kg/injection, schedule: Q01DX009 (ip), vehicle: saline with Tween-80, higher = longer survival); 101 % of control (endpoint: median survival time, dose: 5.0 mg/kg/injection, schedule: Q01DX009 (ip), vehicle: saline with Tween-80, higher = longer survival).

Consider `O=C1N(Cl)C(=O)C(c2ccc(Cl)cc2)(c2ccc(Cl)cc2)N1Cl`, for which the T/C runs as follows: (endpoint: mean tumor weight, dose: 17.0 mg/kg/injection, schedule: Q01DX011 (ip), vehicle: other, higher = larger tumour) 84 % of control; (endpoint: mean tumor weight, dose: 33.0 mg/kg/injection, schedule: Q01DX011 (ip), vehicle: other, higher = larger tumour) 68 % of control; (endpoint: mean tumor weight, dose: 50.0 mg/kg/injection, schedule: Q01DX011 (ip), vehicle: other, higher = larger tumour) 23 % of control; (endpoint: mean tumor weight, dose: 75.0 mg/kg/injection, schedule: Q01DX011 (ip), vehicle: other, higher = larger tumour) 25 % of control; (endpoint: mean tumor weight, dose: 112.0 mg/kg/injection, schedule: Q01DX011 (ip), vehicle: other, higher = larger tumour) 36 % of control; (endpoint: mean tumor weight, dose: 224.0 mg/kg/injection, schedule: Q01DX011 (ip), vehicle: other, higher = larger tumour) 52 % of control. Moreover, the T/C runs as follows: under setting [4], 95 % of control; under setting [5], 87 % of control; (endpoint: median survival time, dose: 50.0 mg/kg/injection, schedule: Q01DX009 (ip), vehicle: Klucel (hydroxypropylcellulose) (HPC), higher = longer survival) 101 % of control.

As for `CC(C)CCC[C@@H](C)[C@H]1CC[C@H]2[C@@H]3CC=C4C[C@@H](O)CC[C@]4(C)[C@H]3CC[C@]12C`, the T/C runs as follows: (endpoint: median survival time, dose: 100.0 mg/kg/injection, schedule: Q01DX009 (ip), vehicle: Klucel (hydroxypropylcellulose) (HPC), higher = longer survival) 100 % of control; (endpoint: median survival time, dose: 200.0 mg/kg/injection, schedule: Q01DX009 (ip), vehicle: Klucel (hydroxypropylcellulose) (HPC), higher = longer survival) 90 % of control; (endpoint: median survival time, dose: 400.0 mg/kg/injection, schedule: Q01DX009 (ip), vehicle: Klucel (hydroxypropylcellulose) (HPC), higher = longer survival) 90 % of control; (endpoint: median survival time, dose: 800.0 mg/kg/injection, schedule: Q01DX009 (ip), vehicle: Klucel (hydroxypropylcellulose) (HPC), higher = longer survival) 89 % of control.

For the compound `C[N+](C)(C)CCOC(=O)/C=C/c1cnc[nH]1`, the T/C was 102 % of control under setting [1], 94 % of control under setting [2] and 95 % of control under setting [3].

Regarding `COc1ccc(CC2C(=O)NC(C)C(=O)N(C)C3Cc4ccc(cc4)Oc4cc(ccc4O)CC(C(=O)NC(C)C(=O)NC(C)C(=O)N2C)N(C)C3=O)cc1` (stereo not given), the T/C reads like this: (endpoint: median survival time, dose: 1.0 mg/kg/injection, schedule: Q01DX009 (ip), vehicle: saline, higher = longer survival) 103 % of control; (endpoint: median survival time, dose: 2.0 mg/kg/injection, schedule: Q01DX009 (ip), vehicle: saline, higher = longer survival) 111 % of control.
